In the supplement of paper PMC10307832:

Legend:
Test in all cases: relative viability (nuclei count vs DMSO), 5 days (fraction); higher = more cells survive
LCLC-103H = test system: LCLC-103H
Outline: (§1)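 Relative viability divides the nuclei count in treated wells by that in vehicle wells. Lung cancer cell lines were seeded in 1536-well plates, dosed by pin tool the next day, and fixed and stained after 5 days in one step with final 0.05% Triton X-100, 1% formaldehyde and 1 ug/ml Hoechst. Dosing was a single drug or a fixed anchor-drug dose plus five library-drug doses (not always all listed) in √10 steps, and values are medians of duplicate plates imaged at 4×.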

LXF-289 = test system: LXF-289
Outline: as §1

NCI-H1355 = test system: NCI-H1355
Outline: as §1

NCI-H1651 = test system: NCI-H1651
Outline: as §1

NCI-H1755 = test system: NCI-H1755
Outline: as §1

NCI-H1792 = test system: NCI-H1792
Outline: as §1

NCI-H1915 = test system: NCI-H1915
Outline: as §1

NCI-H2347 = test system: NCI-H2347
Outline: as §1

NCI-H3122 = test system: NCI-H3122
Outline: as §1

NCI-H322M = test system: NCI-H322M
Outline: as §1

NCI-H441 = test system: NCI-H441
Outline: as §1

## Cc1sc2c(c1C)C(c1ccc(Cl)cc1)=N[C@@H](CC(=O)OC(C)(C)C)c1nnc(C)n1-2 [JQ1] + Nc1ncn([C@H]2C[C@H](O)[C@@H](CO)O2)c(=O)n1 [Decitabine] (partner 2 µM)
LCLC-103H; first compound 0.04 µM
  relative viability: 0.684
LCLC-103H; first compound 0.1265 µM
  relative viability: 0.575
LCLC-103H; first compound 0.4 µM
  relative viability: 0.544
LCLC-103H; first compound 1.265 µM
  relative viability: 0.48
LCLC-103H; first compound 4 µM
  relative viability: 0.542
LXF-289; first compound 0.04 µM
  relative viability: 0.368
LXF-289; first compound 0.1265 µM
  relative viability: 0.401
LXF-289; first compound 0.4 µM
  relative viability: 0.344
LXF-289; first compound 1.265 µM
  relative viability: 0.226
LXF-289; first compound 4 µM
  relative viability: 0.222
NCI-H1355; first compound 0.04 µM
  relative viability: 0.348
NCI-H1355; first compound 0.1265 µM
  relative viability: 0.342
NCI-H1355; first compound 0.4 µM
  relative viability: 0.337
NCI-H1355; first compound 1.265 µM
  relative viability: 0.319
NCI-H1355; first compound 4 µM
  relative viability: 0.249
NCI-H1651; first compound 0.04 µM
  relative viability: 0.651
NCI-H1651; first compound 0.1265 µM
  relative viability: 0.487
NCI-H1651; first compound 0.4 µM
  relative viability: 0.442
NCI-H1651; first compound 1.265 µM
  relative viability: 0.524
NCI-H1651; first compound 4 µM
  relative viability: 0.411
NCI-H1755; first compound 0.04 µM
  relative viability: 0.744
NCI-H1755; first compound 0.1265 µM
  relative viability: 0.738
NCI-H1755; first compound 0.4 µM
  relative viability: 0.747
NCI-H1755; first compound 1.265 µM
  relative viability: 0.731
NCI-H1755; first compound 4 µM
  relative viability: 0.719
NCI-H1792; first compound 0.04 µM
  relative viability: 0.477
NCI-H1792; first compound 0.1265 µM
  relative viability: 0.729
NCI-H1792; first compound 0.4 µM
  relative viability: 0.525
NCI-H1792; first compound 1.265 µM
  relative viability: 0.334
NCI-H1792; first compound 4 µM
  relative viability: 0.187
NCI-H1915; first compound 0.04 µM
  relative viability: 0.279
NCI-H1915; first compound 0.4 µM
  relative viability: 0.255
NCI-H1915; first compound 1.265 µM
  relative viability: 0.246
NCI-H1915; first compound 4 µM
  relative viability: 0.248
NCI-H2347; first compound 0.04 µM
  relative viability: 0.664
NCI-H2347; first compound 0.1265 µM
  relative viability: 0.6
NCI-H2347; first compound 0.4 µM
  relative viability: 0.58
NCI-H2347; first compound 1.265 µM
  relative viability: 0.506
NCI-H2347; first compound 4 µM
  relative viability: 0.437
NCI-H3122; first compound 0.04 µM
  relative viability: 0.489
NCI-H3122; first compound 0.1265 µM
  relative viability: 0.395
NCI-H3122; first compound 0.4 µM
  relative viability: 0.517
NCI-H3122; first compound 1.265 µM
  relative viability: 0.343
NCI-H3122; first compound 4 µM
  relative viability: 0.38
NCI-H322M; first compound 0.04 µM
  relative viability: 0.631
NCI-H322M; first compound 0.1265 µM
  relative viability: 0.886
NCI-H322M; first compound 0.4 µM
  relative viability: 0.641
NCI-H322M; first compound 1.265 µM
  relative viability: 0.594
NCI-H322M; first compound 4 µM
  relative viability: 0.592
NCI-H441; first compound 0.04 µM
  relative viability: 0.257
NCI-H441; first compound 0.1265 µM
  relative viability: 0.266
NCI-H441; first compound 0.4 µM
  relative viability: 0.251
